Data: patent publication US7001924B2, “Inhibitors of RNase P proteins as antibacterial compounds” (Message Pharmaceuticals, priority 2001, dated 2006)
Entries after “also recorded” stand apart in the source; their conditions may differ. Counter-ions that a name gives are not always drawn.

Tests used:
[1] = tested on: N. gonorrhea RNase P (M1 RNA and C5 protein); assay: RNase P inhibition assay (fluorescence polarization, ptRNA Gln cleavage); type: biochemical; conditions: tested at 0.3, 1, 3 and 10 μM, result in words, numbers only in figures
Excerpt: The ability of compounds of the invention to inhibit RNase P enzymes can be assessed by standard techniques. For example, the cleavage of ptRNA^Gln by the enzyme N. Gonorrhea RNase P, can be monitored in the presence and absence of a candidate compound as described in the Example 23. The progress of the RNase P-mediated cleavage reaction can be assessed by measuring the fluorescence polarization level of the TAMRA moiety hybridized to the cleaved substrate
Compounds of the invention (see Table 1 and FIG. 3) were assayed for inhibition of RNase P activity. The assay components were the M1 RNA and C5 protein from N. gonorrhea and a model precursor tRNA substrate derived from Synechocystis ptGLN. The compounds were diluted in assay buffer (50 mM Tris-HCl, pH 7.5/100 mM […]/10 mM MgCl2/1 mM DTT/1 mg/ml BSA) from 2 μL of a 1 mM DMSO stock solutions in 384 well polypropylene plates to a concentration of 40 μM. 12.5 μL of each compound dilution was transferred to empty duplicate wells of two 384-well black polystyrene assay plates. One assay plate received 37.5 μL of assay buffer plus 12.5 μL of stop buffer (25 mM EDTA/1.25×SSC Buffer in PA buffer; SSC=150 mM NaCl, 15 mM sodium citrate and PA=50 mM TRIS hydrochloride, 100 mM ammonium chloride, 10 mM magnesium chloride) and was read immediately on a LJL Analyst fluorimeter to serve as a background fluorescence plate. The other plate sequentially received the following reagents diluted in assay buffer, 12.5 μL of 0.4 nM M1 RNA, 12.5 μL of 2 nM C5 protein, and 12.5 μL of 160 nM substrate. Wells were included that receive neither the M1 RNA nor the C5 protein to serve as no-enzyme controls. The enzymatic reaction was allowed to proceed for 30 minutes and was stopped by the addition of 12.5 μL per well of stop buffer containing 20 nM of a DNA-5′ TAMRA probe complementary to the 5′ end of the substrate. The probe was allowed to hybridize to the substrate for 2 hours, and the polarization status of the probe was measured using the LJL Analyst fluorimeter. All compounds were tested at 0.3 μM, 1 μM, 3 μM, and 10 μM concentrations. The results, which are expressed as a percentage of the control, were calculated using equation 1. In this equation, f is the fluorescence in counts per second; (f.enzyme+probe) is the fluorescence observed when enzymatic activity is uninhibited; (f.probe) is the fluorescence observed without enzymatic activity; and (f.compound+enzyme+probe) is the fluorescence observed when the enzymatic activity is modulated by a compound of the invention. Assay results for MES 35793 are shown in FIG. 7, and assay results for MES 31242, MES 82794, and MES 35793 are shown in FIG. 8. Other candidate RNase P inhibitors may be tested similarly using any RNase P holoenzyme and any appropriate RNase P substrate. [formula]

[2] = tested on: N. gonorrhea; assay: Bacterial inhibition assay, N. Gonorrhea growth; type: cell-based; conditions: tested at 1, 3 and 10 μM, result in words
Protocol: (§1) Compounds of the invention (see Table 1 and FIG. 3) were assayed for their ability to inhibit bacterial growth. Compounds were diluted from 10 mM DMSO stocks to 3 mM and 1 mM in DMSO. The compounds were further diluted from these stocks into saline for 200, […], and 20 μM stocks. Control antibiotics were diluted similarly. Overnight cultures of bacteria were made in the following manner. N. gonorrhea was streaked onto a chocolate agar plate and incubated at 35° C./5% CO2. A loopful from a stock plate of E. coli was added to 3 mL TSB medium, vortexed and incubated at 37° C. in the absence of CO2. An S. aureus culture was made as described for the E. coli culture, except that a nutrient broth was used instead of TSB medium. […]
(§2) On the following day bacteria were prepared by dilution into saline with O.D. 625 nM readings taken to determine the concentration of the bacteria. CFUs (colony forming units) were determined using the formula: CFU/mL=OD625×(1.5×10^8 CFU/mL/OD McFarland std)×dilution. […] Plates were incubated at 35° C. with O2 for 16-20 hours for S. aureus, S. pyogenes, and E. coli and read at OD665 in the Victor2 plate reader. […] The plates were read at OD490. […] The results, which are expressed as a percentage of the control, were calculated using equation 2. […]

[3] = tested on: bacterial growth (N. gonorrhea, E. coli, S. aureus, S. pyogenes); assay: Bacterial inhibition assay (species not stated); type: cell-based; conditions: tested at 1, 3 and 10 μM; species not given, refers to FIGS. 1A-2
Protocol: The ability of compounds of the invention to inhibit bacterial growth can also be assessed by standard testing procedures, such as monitoring bacterial growth in the presence of one or more candidate compound. Any reduction in bacterial growth, in comparison to an uninhibited control, is a measure of the antibacterial activity of the compound. The antibacterial activity of some compounds of the invention were measured against N. gonorrhea, E. coli, S. aureus, and S. pyogenes (Example 23).
Compounds of the invention (see Table 1 and FIG. 3) were assayed for their ability to inhibit bacterial growth. Compounds were diluted from 10 mM DMSO stocks to 3 mM and 1 mM in DMSO. The compounds were further diluted from these stocks into saline for 200, 120, and 20 μM stocks. Control antibiotics were diluted similarly. Overnight cultures of bacteria were made in the following manner. N. gonorrhea was streaked onto a chocolate agar plate and incubated at 35° C./5% CO2. A loopful from a stock plate of E. coli was added to 3 mL TSB medium, vortexed and incubated at 37° C. in the absence of CO2. An S. aureus culture was made as described for the E. coli culture, except that a nutrient broth was used instead of TSB medium. Rather than make an overnight culture of S. pyogenes, a loopful of S. pyogenes from a blood plate or a stock plate was used the following day for direct cell suspension.
On the following day bacteria were prepared by dilution into saline with O.D. 625 nM readings taken to determine the concentration of the bacteria. CFUs (colony forming units) were determined using the formula: CFU/mL=OD625×(1.5×10^8 CFU/mL/OD McFarland std)×dilution. The four bacterial cultures were diluted initially to 5.5×10^7 CFU/mL. The bacteria were then further diluted into medium to 5.5×10^5 CFU/mL for S. aureus, S. pyogenes and E. coli and 5.5×10^6 CFU/mL for N. gonorrhea. S. aureus and E. coli are grown in CAMHB medium and S. pyogenes and N. gonorrhea in CAMHB-3% LHB medium. The bacteria were added one per plate at 200 μL per well. Compounds were added in 10 μL for final concentrations of 10, 3 and 1 μM in duplicate. Control antibiotics for S. aureus, oxacillin; for S. pyogenes, penicillin; for E. coli, ampicillin; and for N. gonorrhea, ciprofloxacin were added from 0.8 mg/ml to 0.003 mg/ml. Plates were incubated at 35° C. with O2 for 16-20 hours for S. aureus, S. pyogenes, and E. coli and read at OD665 in the Victor2 plate reader. Plates were incubated at 35° C. with 5% CO2 for 24 hours for N. gonorrhea at which time 40 μL of MTS reagent is added per well and incubated for 1 hour in same incubator. The plates were read at OD490. Compounds were tested at 1 μM, 3 μM, and 10 μM concentrations. The results, which are expressed as a percentage of the control, were calculated using equation 2. […]

[4] = tested on: S. aureus; assay: Bacterial inhibition assay, S. aureus growth; type: cell-based; conditions: tested at 1, 3 and 10 μM, result in words
Protocol: as §1, §2

Row | SMILES | inhibition of RNase P activity (fluorescence data, percentage of the control) [1] | inhibition of RNase P activity (fluorescence data, percentage of the control) ([1]; listed as MES10609) | inhibition of bacterial growth, N. Gonorrhea growth data [2] | inhibitors of bacterial growth (summary statement) [3] | inhibition of bacterial growth, S. aureus data [4] | inhibition of RNase P activity (fluorescence data, percentage of the control) ([1]; listed as MES10636)
1 | C/C(=N\NC(=N)N)c1cccc(C(=O)NCCNC(=O)c2cccc(/C(C)=N/NC(=N)N)c2)c1 [MES 10609, bisguanylhydrazone of N-(N′-2-(3-acetylbenzamido)-ethyl)-3-acetylbenzamide] | can inhibit RNase P activity | inhibitors of RNase P activity | can inhibit bacterial growth | inhibitors of bacterial growth | – | –
2 | CCN1/C(=C/C=C/c2sc3c4ccccc4ccc3[n+]2CC)Sc2cc(C)c(C)cc21 [MES 31242] | can inhibit a representative RNase P | – | – | – | – | –
3 | CCN1/C(=C/c2sc3ccc(O)cc3[n+]2CC)C=Cc2ccc(C)cc21 [MES 82794] | can inhibit a representative RNase P | – | – | – | – | –
4 | C/C(=N\NC(=N)N)c1ccc(NC(=O)CNC(=O)c2cccc(/C(C)=N/NC(=N)N)c2)cc1 [MES 10635, Bisguanylhydrazone trifluoroacetic acid salt of N′-(3-acetylbenzoyl)-N-(4-acetylphenyl)glycinamide] | inhibitors of RNase P activity; also recorded: can inhibit a representative RNase P | – | – | inhibitors of bacterial growth | can inhibit bacterial growth | –
5 | C/C(=N\NC(=N)N)c1ccc(NC(=O)[C@H](Cc2ccccc2)NC(=O)c2cccc(/C(C)=N/NC(=N)N)c2)cc1 [MES 10636, Bisguanylhydrazone trifluoroacetic acid salt of N′-(3-acetylbenzoyl)-N-(4-acetylphenyl)phenylalaninamide] | can inhibit a representative RNase P | – | – | inhibitors of bacterial growth | can inhibit bacterial growth | inhibitors of RNase P activity
6 | CCN1/C(=C\C=c2/s/c(=C\c3sc4ccccc4[n+]3CC)n(CC)c2=O)Sc2ccccc21 [MES 35793] | can inhibit RNase P activity; also recorded: can inhibit a representative RNase P | – | can inhibit bacterial growth | inhibitors of bacterial growth | – | –
